The values that follow come from patent US11254668B2, “Pyrazolo[1,5-A]pyrazin-4-yl and related derivatives” (Pfizer Inc., priority 2017, dated 2022).

Common to all, as to assay type: biochemical
The target in one test is TYK2 (Homo sapiens (Human), UniProt P29597). The test can be described thus: JAK Caliper Enzyme Assay at 1 mM ATP, TYK2. A digest of the protocol: (§1)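 Inhibition is measured as reduced phosphorylation of a synthetic peptide by the recombinant human kinase domain at 1 mM ATP. Conditions give 20–30% conversion at room temperature before EDTA quench, and on-chip separation of labelled substrate and product yields percent conversion for dose–response plotting.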

The target of another test is JAK1 (Homo sapiens (Human), UniProt P23458). The test can be described thus: JAK Caliper Enzyme Assay at 1 mM ATP, JAK1. A digest of the protocol:
(§2)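 Recombinant human kinase domains phosphorylate a fluorescent synthetic peptide at 1 mM ATP, room temperature, with enzyme and time tuned for 20-30% conversion; EDTA-stopped. Product/substrate separated by microfluidic mobility shift; percent effect versus DMSO and positive controls fitted to IC50 (nM).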

A further test concerns the target JAK2 (Homo sapiens (Human), UniProt O60674). Kind of test: JAK Caliper Enzyme Assay at 1 mM ATP, JAK2. In outline: as §1
Another test deals with JAK3 (Homo sapiens (Human), UniProt P52333). Kind of test: JAK Caliper Enzyme Assay at 1 mM ATP, JAK3. A digest of the protocol:
as §2

JAK3, sequence (P52333 822-1111): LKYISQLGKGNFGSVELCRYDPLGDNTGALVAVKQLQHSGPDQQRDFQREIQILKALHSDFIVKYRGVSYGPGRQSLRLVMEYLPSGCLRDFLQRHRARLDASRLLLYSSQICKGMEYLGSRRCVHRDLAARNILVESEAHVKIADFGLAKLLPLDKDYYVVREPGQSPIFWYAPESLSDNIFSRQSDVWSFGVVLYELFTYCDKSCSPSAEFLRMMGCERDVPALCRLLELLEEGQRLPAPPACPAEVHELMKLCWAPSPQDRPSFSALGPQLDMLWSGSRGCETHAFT
JAK2, sequence (O60674 849-1124): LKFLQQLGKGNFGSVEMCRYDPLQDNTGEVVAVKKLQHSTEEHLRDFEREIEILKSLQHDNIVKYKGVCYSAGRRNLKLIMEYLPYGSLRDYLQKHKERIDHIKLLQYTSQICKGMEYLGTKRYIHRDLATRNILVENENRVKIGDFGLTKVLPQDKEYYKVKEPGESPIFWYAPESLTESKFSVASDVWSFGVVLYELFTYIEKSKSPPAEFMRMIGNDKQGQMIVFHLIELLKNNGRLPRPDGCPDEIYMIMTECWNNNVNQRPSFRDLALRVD
JAK1, sequence (P23458 875-1153): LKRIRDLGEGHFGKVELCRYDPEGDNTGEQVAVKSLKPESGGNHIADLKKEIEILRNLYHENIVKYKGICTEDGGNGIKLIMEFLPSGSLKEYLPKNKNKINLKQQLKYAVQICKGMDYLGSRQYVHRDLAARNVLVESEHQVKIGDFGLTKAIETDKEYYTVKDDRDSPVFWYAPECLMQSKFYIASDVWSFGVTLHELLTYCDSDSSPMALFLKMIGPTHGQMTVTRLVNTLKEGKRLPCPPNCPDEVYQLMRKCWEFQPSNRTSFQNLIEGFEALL
TYK2, sequence (P29597 897-1176): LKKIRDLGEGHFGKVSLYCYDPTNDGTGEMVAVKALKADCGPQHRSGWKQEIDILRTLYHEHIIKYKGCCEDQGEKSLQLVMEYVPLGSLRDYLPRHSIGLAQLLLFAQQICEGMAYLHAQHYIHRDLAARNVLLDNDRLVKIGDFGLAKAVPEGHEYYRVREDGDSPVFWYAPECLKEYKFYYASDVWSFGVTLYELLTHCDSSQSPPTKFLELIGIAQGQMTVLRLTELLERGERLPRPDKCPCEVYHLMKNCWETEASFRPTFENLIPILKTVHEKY

Take `N#CCC1(n2ccc(-c3nc(-c4cnn(C5CNC5)c4)cc4ncccc34)n2)CN(CC(F)(F)F)C1` [Example 115, [3-(3-{7-[1-(azetidin-3-yl)-1H-pyrazol-4-yl]-1,6-naphthyridin-5-yl}-1H-pyrazol-1-yl)-1-(2,2,2-trifluoroethyl)azetidin-3-yl]acetonitrile]: the IC50 on TYK2 is 0.12 µM; on JAK1 it was 7.06 µM; at JAK2 it was 0.327 µM; on JAK3 it was more than 10 µM.

Regarding `N#CCC1(n2ccc(-c3nc(-c4cnn(C5CCNCC5)c4)cc4ncccc34)n2)CN(CC(F)(F)F)C1` [Example 116, [3-(3-{7-[1-(piperidin-4-yl)-1H-pyrazol-4-yl]-1,6-naphthyridin-5-yl}-1H-pyrazol-1-yl)-1-(2,2,2-trifluoroethyl)azetidin-3-yl]acetonitrile], the IC50 at TYK2 came out at 0.041 µM; at JAK1, 1.04 µM; on JAK2, 0.054 µM; on JAK3, 4.42 µM.

Consider `CN1CCC(n2cc(-c3cc4ncccc4c(-c4ccn(C5(CC#N)CN(CC(F)(F)F)C5)n4)n3)cn2)CC1` [Example 117, [3-(3-{7-[1-(1-methylpiperidin-4-yl)-1H-pyrazol-4-yl]-1,6-naphthyridin-5-yl}-1H-pyrazol-1-yl)-1-(2,2,2-trifluoroethyl)azetidin-3-yl]acetonitrile], for which the IC50 on TYK2 was 0.088 µM; at JAK1 it was 1.06 µM; on JAK2, 0.064 µM; on JAK3 it was 6.96 µM.

As for `CS(=O)(=O)N1CC(CC#N)(n2ccc(-c3nc(-c4cnn(C(F)(F)F)c4)cc4ncccc34)n2)C1` [Example 118, [1-(methylsulfonyl)-3-(3-{7-[1-(trifluoromethyl)-1H-pyrazol-4-yl]-1,6-naphthyridin-5-yl}-1H-pyrazol-1-yl)azetidin-3-yl]acetonitrile], the half-maximal inhibitory concentration (IC50) on TYK2 is 0.843 µM; at JAK1, 9.06 µM; at JAK2, 4.17 µM; at JAK3, more than 10 µM.

Take `N#CCC1(n2ccc(-c3nc(-c4cnn(C5COC5)c4)cc4ncccc34)n2)CN(CC(F)(F)F)C1` [Example 119, [3-(3-{7-[1-(oxetan-3-yl)-1H-pyrazol-4-yl]-1,6-naphthyridin-5-yl}-1H-pyrazol-1-yl)-1-(2,2,2-trifluoroethyl)azetidin-3-yl]acetonitrile]: the 50% inhibitory concentration (IC50) on TYK2 amounted to 0.029 µM; on JAK1, 0.976 µM; at JAK2, 0.082 µM; on JAK3, 8.38 µM.

Regarding `CS(=O)(=O)N1CC(CC#N)(n2ccc(-c3nc(-c4cnn(C5COC5)c4)cc4ncccc34)n2)C1` [Example 121, [1-(methylsulfonyl)-3-(3-{7-[1-(oxetan-3-yl)-1H-pyrazol-4-yl]-1,6-naphthyridin-5-yl}-1H-pyrazol-1-yl)azetidin-3-yl]acetonitrile], the IC50 on TYK2 was determined as 0.02 µM; at JAK1 it was 1.75 µM; on JAK2 it was 0.101 µM; at JAK3, 9.59 µM.

In the case of `CO[C@H]1C[C@@](CC#N)(n2ccc(-c3nc(-c4cnn(C5COC5)c4)cc4ncccc34)n2)C1` [Example 122, [cis-3-methoxy-1-(3-{7-[1-(oxetan-3-yl)-1H-pyrazol-4-yl]-1,6-naphthyridin-5-yl}-1H-pyrazol-1-yl)cyclobutyl]acetonitrile], the IC50 on TYK2 was 0.11 µM; on JAK1 it was 6.66 µM; on JAK2, 0.391 µM; on JAK3 it was more than 10 µM.

As to `CS(=O)(=O)N1CC(CC#N)(n2ccc(-c3nc(-c4cnn([C@H]5CCOC5)c4)cc4ncccc34)n2)C1` [Example 123, {1-(methylsulfonyl)-3-[3-(7-{1-[(3S)-tetrahydrofuran-3-yl]-1H-pyrazol-4-yl}-1,6-naphthyridin-5-yl)-1H-pyrazol-1-yl]azetidin-3-yl}acetonitrile], the half-maximal inhibitory concentration (IC50) on TYK2 is 0.021 µM; on JAK1 it was 0.744 µM; at JAK2 it was 0.054 µM; at JAK3, 9.66 µM.

For the compound `CS(=O)(=O)N1CC(CC#N)(n2ccc(-c3nc(-c4cnn([C@@H]5CCOC5)c4)cc4ncccc34)n2)C1` [Example 124, {1-(methylsulfonyl)-3-[3-(7-{1-[(3R)-tetrahydrofuran-3-yl]-1H-pyrazol-4-yl}-1,6-naphthyridin-5-yl)-1H-pyrazol-1-yl]azetidin-3-yl}acetonitrile], the IC50 on TYK2 worked out at 0.027 µM; at JAK1 it was 0.715 µM; at JAK2, 0.068 µM; on JAK3, 9.88 µM.

Consider `CS(=O)(=O)N1CC(CC#N)(n2ccc(-c3nc(-c4cnn(CCO)c4)cc4ncccc34)n2)C1` [Example 125, [3-(3-{7-[1-(2-hydroxyethyl)-1H-pyrazol-4-yl]-1,6-naphthyridin-5-yl}-1H-pyrazol-1-yl)-1-(methylsulfonyl)azetidin-3-yl]acetonitrile], for which the IC50 at TYK2 was 0.033 µM; on JAK1 it was 0.965 µM; at JAK2 it was 0.162 µM; on JAK3, more than 10 µM.

As for `N#CC[C@]1(n2ccc(-c3nc(-c4cnn(CCO)c4)cc4ncccc34)n2)C[C@H](C#N)C1` [Example 126, trans-3-(cyanomethyl)-3-(3-{7-[1-(2-hydroxyethyl)-1H-pyrazol-4-yl]-1,6-naphthyridin-5-yl}-1H-pyrazol-1-yl)cyclobutanecarbonitrile], the IC50 at TYK2 was 0.041 µM; at JAK1, 0.583 µM; on JAK2 it was 0.119 µM; at JAK3, more than 10 µM.

`N#CC[C@]1(n2ccc(-c3nc(-c4cnn(CCO)c4)cc4ncccc34)n2)C[C@@H](C#N)C1` [Example 127, cis-3-(cyanomethyl)-3-(3-{7-[1-(2-hydroxyethyl)-1H-pyrazol-4-yl]-1,6-naphthyridin-5-yl}-1H-pyrazol-1-yl)cyclobutanecarbonitrile]: the IC50 at TYK2 was determined as 0.017 µM; on JAK1 it was 0.064 µM; at JAK2 it was 0.02 µM; at JAK3 it was 1.05 µM.

As for `CO[C@H]1C[C@@](CC#N)(n2ccc(-c3nc(-c4cnn(CCO)c4)cc4ncccc34)n2)C1` [Example 128, [cis-1-(3-{7-[1-(2-hydroxyethyl)-1H-pyrazol-4-yl]-1,6-naphthyridin-5-yl}-1H-pyrazol-1-yl)-3-methoxycyclobutyl]acetonitrile], the IC50 at TYK2 is 0.115 µM; at JAK1 it was 3.53 µM; at JAK2, 0.62 µM; on JAK3, more than 10 µM.

Consider `CO[C@H]1C[C@](CC#N)(n2ccc(-c3nc(-c4cnn(CCO)c4)cc4ncccc34)n2)C1` [Example 129, [trans-1-(3-{7-[1-(2-hydroxyethyl)-1H-pyrazol-4-yl]-1,6-naphthyridin-5-yl}-1H-pyrazol-1-yl)-3-methoxycyclobutyl]acetonitrile], for which the IC50 on TYK2 was 0.133 µM; at JAK1 it was 5.92 µM; on JAK2, 1.23 µM; on JAK3 it was more than 10 µM.

Take `CS(=O)(=O)N1CC(CC#N)(n2ccc(-c3nc(-c4cnn(C(CO)CCl)c4)cc4ncccc34)n2)C1` (centres unmarked) [Example 130, [3-(3-{7-[1-(1-chloro-3-hydroxypropan-2-yl)-1H-pyrazol-4-yl]-1,6-naphthyridin-5-yl}-1H-pyrazol-1-yl)-1-(methylsulfonyl)azetidin-3-yl]acetonitrile]: the IC50 on TYK2 amounted to 0.032 µM; on JAK1, 0.232 µM; on JAK2, 0.063 µM; at JAK3, 9.52 µM.

For the compound `CS(=O)(=O)N1CC(CC#N)(n2ccc(-c3nc(-c4cnn(CC5COC5)c4)cc4ncccc34)n2)C1` [Example 132, [1-(methylsulfonyl)-3-(3-{7-[1-(oxetan-3-ylmethyl)-1H-pyrazol-4-yl]-1,6-naphthyridin-5-yl}-1H-pyrazol-1-yl)azetidin-3-yl]acetonitrile], the IC50 was 0.022 µM at TYK2, 0.619 µM on JAK1, 0.07 µM at JAK2 and 9.12 µM at JAK3.

As to `Cn1ncc(-c2cc3ncccc3c(-c3ccn(C4(CC#N)CN(S(C)(=O)=O)C4)n3)n2)c1C(N)=O` [Example 134, 4-(5-{1-[3-(cyanomethyl)-1-(methylsulfonyl)azetidin-3-yl]-1H-pyrazol-3-yl}-1,6-naphthyridin-7-yl)-1-methyl-1H-pyrazole-5-carboxamide], the 50% inhibitory concentration (IC50) on TYK2 was 0.685 µM; at JAK1 it was more than 10 µM; on JAK2, more than 10 µM; at JAK3 it was more than 10 µM.

On to `Cn1cc(-c2cc3ncccc3c(-c3ccn([C@]4(CC#N)C[C@@H](C#N)C4)n3)n2)c(CO)n1` [Example 135, trans-3-(cyanomethyl)-3-(3-{7-[3-(hydroxymethyl)-1-methyl-1H-pyrazol-4-yl]-1,6-naphthyridin-5-yl}-1H-pyrazol-1-yl)cyclobutanecarbonitrile], for which the IC50 was 0.02 µM at TYK2, 0.489 µM on JAK1, 0.034 µM at JAK2 and 2.02 µM at JAK3.

In the case of `Cn1ncc(-c2cc3ncccc3c(-c3ccn([C@]4(CC#N)C[C@@H](C#N)C4)n3)n2)c1CO` [Example 136, trans-3-(cyanomethyl)-3-(3-{7-[5-(hydroxymethyl)-1-methyl-1H-pyrazol-4-yl]-1,6-naphthyridin-5-yl}-1H-pyrazol-1-yl)cyclobutanecarbonitrile], the IC50 at TYK2 is 0.044 µM; on JAK1, 0.618 µM; at JAK2 it was 0.26 µM; at JAK3 it was more than 10 µM.

Turning to `Cn1ncc(-c2cc3ncccc3c(-c3ccn(C4(CC#N)CN(S(C)(=O)=O)C4)n3)n2)c1N` [Example 137, [3-{3-[7-(5-amino-1-methyl-1H-pyrazol-4-yl)-1,6-naphthyridin-5-yl]-1H-pyrazol-1-yl}-1-(methylsulfonyl)azetidin-3-yl]acetonitrile], the IC50 at TYK2 was 0.052 µM; at JAK1 it was 0.586 µM; at JAK2, 0.207 µM; at JAK3, more than 10 µM.

In general, IC50 refers to the point on the concentration scale where inhibition reaches its midpoint.
